Here are results for ten molecules from patent US20060205809A1, “Pharmaceutical preparation containing palladium complex compounds and the uses thereof for treating cancer and autoimmune disease” (priority 2002, published 2006).

As usually defined, the IC50 is the concentration needed to halve the response being measured.

Read-outs that look alike come from different tables or passages of the source.

For one test, the system named is CALU-6 (lung cancer). Nature of the test: Cytotoxicity assay, 2 h drug exposure at pH 6.8 or 7.4, crystal violet staining. It is filed as cell-based, human. To be noted: then 72 h. The method, then:
(§1) The Pd-complexes were dissolved in acetone (1 mg/ml stock solution). Human cancer cell lines SK-MEL 25 (melanoma) and CALU-6 (lung cancer) were used for the determination of the cytotoxic activity of Pd-complexes. For comparison, the well known anti-tumor drugs cisplatin and corresponding platinum complexes were included. Cells were seeded at a density of 2×10^6 cells/96 well plate. After 24 h, tissue culture medium was removed and fresh medium supplemented with 10% fetal calf serum and 100 units/ml penicillin/streptomycin containing either 2.2 g/l (pH 7.4) or 0.85 g/l (pH 6.8) NaHCO3 was added. After 1 hour of equilibration in an atmosphere containing 5% CO2, drugs were added at various concentrations (50, 25, 12.5, 6.25, 3.1, 1.6, 0.8 μg/ml) in quadruplicate. Untreated cultures served as controls. Two hours later, the culture medium was replaced with 0.1 ml of fresh tissue culture medium (pH 7.4, 10% fetal calf serum). Culture plates were then incubated for 48 h (SK-MEL 25) or 72 h (Calu-6) at 37° C. Then, cells were fixed with 3% formaldehyde and stained with 1% crystalviolet. The number of viable cells is proportional to the amount of bound cristalviolet. Therefore, the relative cell number could be determined at an Antos 2001 ELISA reader (550 nm). Dose response curves were established from the OD data and the concentration at which the cell number was reduced to 50% of the control (IC50) was determined.

The next test has as its system SK-MEL 25 (melanoma). The description is as above. The format is cell-based, human. Particulars: then 48 h. Here is the method: as §1
[1] abbreviates: CALU-6, pH 6.8, 2 h drug exposure, read-out: IC50-values, CALU-6, pH 6.8.
Where [2] appears, read: CALU-6, pH 7.4, 2 h drug exposure, read-out: IC50-values, CALU-6, pH 7.4.
Setting [3] is: SK-MEL 25, pH 6.8, 2 h drug exposure, read-out: IC50-values, SK-MEL 25, pH 6.8.
[4] abbreviates: SK-MEL 25, pH 7.4, 2 h drug exposure, read-out: IC50-values, SK-MEL 25, pH 7.4.

In the case of `COC(=S)[S-].COC(=S)[S-].[Pd+2]` [compound 7, Bis(O-methyl-dithiocarbonato)palladium(II)], the IC50 with CALU-6 (lung cancer) (setting [1]) is 1.6 µM; in the test on CALU-6 (lung cancer) (setting [2]), 4.5 µM; in the test with SK-MEL 25 (melanoma) (setting [3]), 4.5 µM; in the test with SK-MEL 25 (melanoma) (setting [4]), 6.2 µM.

On to `S=C([S-])OC1CCCCC1.S=C([S-])OC1CCCCC1.[Pd+2]` [compound 1, Bis(O-cyclohexyl-dithiocarbonato)palladium(II)], for which the IC50 came out at 2 µM with CALU-6 (lung cancer) (setting [1]), 4 µM with CALU-6 (lung cancer) (setting [2]), 6 µM in the test on SK-MEL 25 (melanoma) (setting [3]) and 10 µM with SK-MEL 25 (melanoma) (setting [4]).

Take `CCCCCCOC(=S)[S-].CCCCCCOC(=S)[S-].[Pd+2]` [compound 6, Bis(O-hexyl-dithiocarbonato)palladium(II)]: the half-maximal inhibitory concentration (IC50) is 3.1 µM in the test with CALU-6 (lung cancer) (setting [1]), 6.25 µM with CALU-6 (lung cancer) (setting [2]), 10 µM in the test with SK-MEL 25 (melanoma) (setting [3]) and 10 µM in the test on SK-MEL 25 (melanoma) (setting [4]).

Take `CCCCOC(=S)[S-].CCCCOC(=S)[S-].[Pd+2]` [compound 5, Bis(O-butyl-dithiocarbonato)palladium(II)]: the IC50 in the test with CALU-6 (lung cancer) (setting [1]) was determined as 1 µM; with CALU-6 (lung cancer) (setting [2]), 2.5 µM; with SK-MEL 25 (melanoma) (setting [3]) it was 1 µM; in the test with SK-MEL 25 (melanoma) (setting [4]), 3.1 µM.

On to `CCOC(=S)[S-].CCOC(=S)[S-].[Pt+2]` [Bis(O-ethyl-dithiocarbonato) platin, reference compound], for which the IC50 in the test with CALU-6 (lung cancer) (setting [1]) came out at 12 µM; in the test with CALU-6 (lung cancer) (setting [2]), 28 µM; in the test on SK-MEL 25 (melanoma) (setting [3]), 21 µM; in the test with SK-MEL 25 (melanoma) (setting [4]) it was 45 µM.

`CCC(C)COC(=S)[S][Pd][S]C(=S)OCC(C)CC` (stereo not shown) [compound 4, Bis(O-(2-methyl)-butyl-dithiocarbonato)palladium(II)]: the IC50 in the test with CALU-6 (lung cancer) (setting [1]) worked out at 2 µM; in the test on CALU-6 (lung cancer) (setting [2]), 6 µM; in the test with SK-MEL 25 (melanoma) (setting [3]) it was 6 µM; in the test on SK-MEL 25 (melanoma) (setting [4]) it was 9 µM.

For the molecule `CC(C)OC(=S)[S][Pd][S]C(=S)OC(C)C` [compound 2, Bis(O-isopropyl-dithiocarbonato)palladium(II)], the IC50 amounted to 0.6 µM in the test with CALU-6 (lung cancer) (setting [1]), 1.6 µM in the test with CALU-6 (lung cancer) (setting [2]), 0.8 µM with SK-MEL 25 (melanoma) (setting [3]) and 1.3 µM in the test on SK-MEL 25 (melanoma) (setting [4]).

With `CC(C)OC(=S)[S-].CC(C)OC(=S)[S-].[Pt+2]` [Bis(O-isopropyl-dithiocarbonato)platin, reference compound], the IC50 with CALU-6 (lung cancer) (setting [1]) was determined as 6 µM; in the test with CALU-6 (lung cancer) (setting [2]), 10 µM; with SK-MEL 25 (melanoma) (setting [3]), 6 µM; in the test with SK-MEL 25 (melanoma) (setting [4]), 12 µM.

For `N.N.[Cl][Pt][Cl]` [Cisplatin, reference compound], the IC50 was determined as 6.25 µM with CALU-6 (lung cancer) (setting [1]), 6.25 µM in the test on CALU-6 (lung cancer) (setting [2]), 25 µM in the test on SK-MEL 25 (melanoma) (setting [3]) and 25 µM in the test on SK-MEL 25 (melanoma) (setting [4]).

Regarding `CCOC(=S)[S][Pd][S]C(=S)OCC` [compound 3, Bis(O-ethyl-dithiocarbonato)palladium(II)], the IC50 stood at 2 µM in the test on CALU-6 (lung cancer) (setting [1]), 8 µM in the test with CALU-6 (lung cancer) (setting [2]), 5 µM with SK-MEL 25 (melanoma) (setting [3]) and 14 µM with SK-MEL 25 (melanoma) (setting [4]).
